Experimental data taken from article PMC6467259 (Journal of the American Chemical Society, 2018).

Biological target: PagF (Planktothrix agardhii, UniProt F5B6Z0, F222A)
Test: crystal structure of the complex, […] Å
Settings: MgCl2; isoprene donor-binding site

## CC(C)=CCC/C(C)=C/COP(=O)(O)OP(=O)(O)O [GPP]
  crystal structure of the complex, 1.85 Å: crystals of Phe222→Ala PagF in complex with GPP and MgCl2
